According to ChEMBL document CHEMBL1909046, “DrugMatrix in vitro pharmacology data”:

Target: Protein kinase C alpha type (Homo sapiens, UniProt P17252);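 note: inhibition of PKCalpha kinase activity measured in an enzyme assay with histone as the phosphorylation substrate; in other assays of this panel Not Active means under 50% inhibition at 10 µM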
Format: cell-based
Conditions: sf9

Compound | IC50 | Ki
CC1(C)S[C@@H]2[C@H](NC(=O)[C@H](NC(=O)N3CCNC3=O)c3ccccc3)C(=O)N2[C@H]1C(=O)O [AZLOCILLIN] | Not Active | –
CCOC(=O)OC(C)OC1=C(C(=O)Nc2ccccn2)N(C)S(=O)(=O)c2ccccc21 (stereo not drawn) [AMPIROXICAM] | Not Active | –
GOLD SODIUM THIOMALATE | Not Active | Not Active
CC[N+](CC)(CC)CCOc1cccc(OCC[N+](CC)(CC)CC)c1OCC[N+](CC)(CC)CC.[I-].[I-].[I-] [GALLAMINE TRIETHIODIDE] | Not Active | –

Target: T1, Muscarinic acetylcholine receptor M4 (Homo sapiens, UniProt P08173); note: in other assays of this panel Not Active means under 50% inhibition at 10 µM
T1 sequence (P08173 whole entry): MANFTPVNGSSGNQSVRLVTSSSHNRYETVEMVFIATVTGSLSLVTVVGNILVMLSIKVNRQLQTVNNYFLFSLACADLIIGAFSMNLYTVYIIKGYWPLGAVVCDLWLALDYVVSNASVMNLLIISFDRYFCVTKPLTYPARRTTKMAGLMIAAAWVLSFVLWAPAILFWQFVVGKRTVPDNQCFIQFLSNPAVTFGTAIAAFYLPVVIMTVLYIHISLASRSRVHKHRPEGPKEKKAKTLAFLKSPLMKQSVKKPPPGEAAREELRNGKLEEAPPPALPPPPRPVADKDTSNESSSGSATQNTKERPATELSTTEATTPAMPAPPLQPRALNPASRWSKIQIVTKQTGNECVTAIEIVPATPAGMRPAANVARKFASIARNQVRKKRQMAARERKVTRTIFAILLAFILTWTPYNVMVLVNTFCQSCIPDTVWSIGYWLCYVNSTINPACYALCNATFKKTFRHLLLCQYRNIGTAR
Format: cell membranes, CHO-K1, Membrane
Conditions: cho-k1

Compound | IC50 | Ki
CC1(C)S[C@@H]2[C@H](NC(=O)[C@H](NC(=O)N3CCNC3=O)c3ccccc3)C(=O)N2[C@H]1C(=O)O [AZLOCILLIN] | Not Active | –
CCOC(=O)OC(C)OC1=C(C(=O)Nc2ccccn2)N(C)S(=O)(=O)c2ccccc21 (stereo not drawn) [AMPIROXICAM] | Not Active | –
GOLD SODIUM THIOMALATE | Not Active | Not Active
CC[N+](CC)(CC)CCOc1cccc(OCC[N+](CC)(CC)CC)c1OCC[N+](CC)(CC)CC.[I-].[I-].[I-] [GALLAMINE TRIETHIODIDE] | Not Active | –

Target: T2, Progesterone receptor (Bos taurus, UniProt Q690N0)
T2 sequence (Q690N0 whole entry): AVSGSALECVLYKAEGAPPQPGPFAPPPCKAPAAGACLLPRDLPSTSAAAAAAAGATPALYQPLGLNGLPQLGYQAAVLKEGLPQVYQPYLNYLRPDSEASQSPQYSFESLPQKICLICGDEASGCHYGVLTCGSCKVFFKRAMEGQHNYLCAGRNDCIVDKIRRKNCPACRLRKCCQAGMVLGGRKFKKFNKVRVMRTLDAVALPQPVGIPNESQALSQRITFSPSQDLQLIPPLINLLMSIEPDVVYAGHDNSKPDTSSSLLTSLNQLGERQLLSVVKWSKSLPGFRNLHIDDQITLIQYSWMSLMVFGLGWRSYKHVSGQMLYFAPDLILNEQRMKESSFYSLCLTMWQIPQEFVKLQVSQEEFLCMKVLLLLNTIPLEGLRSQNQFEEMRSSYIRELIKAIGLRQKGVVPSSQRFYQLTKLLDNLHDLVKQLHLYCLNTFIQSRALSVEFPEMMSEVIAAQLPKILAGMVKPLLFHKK
Test: DRUGMATRIX: Progesterone radioligand binding (ligand: [3H] R-5020)
Format: tissue-based, Uterus
Conditions: Not Active = under 50% inhibition at 10 µM

Compound | IC50 | Ki
CC1(C)S[C@@H]2[C@H](NC(=O)[C@H](NC(=O)N3CCNC3=O)c3ccccc3)C(=O)N2[C@H]1C(=O)O [AZLOCILLIN] | Not Active | –
CCOC(=O)OC(C)OC1=C(C(=O)Nc2ccccn2)N(C)S(=O)(=O)c2ccccc21 (stereo not drawn) [AMPIROXICAM] | Not Active | –
GOLD SODIUM THIOMALATE | Not Active | Not Active
CC[N+](CC)(CC)CCOc1cccc(OCC[N+](CC)(CC)CC)c1OCC[N+](CC)(CC)CC.[I-].[I-].[I-] [GALLAMINE TRIETHIODIDE] | Not Active | –

Target: Delta-type opioid receptor (Homo sapiens, UniProt P41143); note: in other assays of this panel Not Active means under 50% inhibition at 10 µM
Format: cell membranes, HEK293, Membrane
Conditions: hek293

Delta-type opioid receptor, sequence (P41143 whole entry): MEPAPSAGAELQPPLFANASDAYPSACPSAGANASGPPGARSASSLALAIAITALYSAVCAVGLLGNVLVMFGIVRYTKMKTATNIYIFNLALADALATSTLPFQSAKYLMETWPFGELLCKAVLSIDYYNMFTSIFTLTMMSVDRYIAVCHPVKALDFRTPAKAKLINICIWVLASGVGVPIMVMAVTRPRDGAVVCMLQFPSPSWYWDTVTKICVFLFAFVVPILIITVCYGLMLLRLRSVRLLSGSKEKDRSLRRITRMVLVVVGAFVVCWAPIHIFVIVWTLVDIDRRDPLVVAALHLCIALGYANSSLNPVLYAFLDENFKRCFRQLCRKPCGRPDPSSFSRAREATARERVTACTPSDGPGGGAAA

Compound | IC50 | Ki
CC1(C)S[C@@H]2[C@H](NC(=O)[C@H](NC(=O)N3CCNC3=O)c3ccccc3)C(=O)N2[C@H]1C(=O)O [AZLOCILLIN] | Not Active | –
CCOC(=O)OC(C)OC1=C(C(=O)Nc2ccccn2)N(C)S(=O)(=O)c2ccccc21 (stereo not drawn) [AMPIROXICAM] | Not Active | –
GOLD SODIUM THIOMALATE | Not Active | Not Active
CC[N+](CC)(CC)CCOc1cccc(OCC[N+](CC)(CC)CC)c1OCC[N+](CC)(CC)CC.[I-].[I-].[I-] [GALLAMINE TRIETHIODIDE] | Not Active | –

Tested on: not listed separately
Test: DRUGMATRIX: Serotonin (5-Hydroxytryptamine) 5-HT3 radioligand binding (ligand: [3H] GR-65630)
Format: cell membranes, Membrane
Conditions: hek293; Not Active = under 50% inhibition at 10 µM

Compound | IC50 | Ki
CC1(C)S[C@@H]2[C@H](NC(=O)[C@H](NC(=O)N3CCNC3=O)c3ccccc3)C(=O)N2[C@H]1C(=O)O [AZLOCILLIN] | Not Active | Not Active
CCOC(=O)OC(C)OC1=C(C(=O)Nc2ccccn2)N(C)S(=O)(=O)c2ccccc21 (stereo not drawn) [AMPIROXICAM] | Not Active | Not Active
GOLD SODIUM THIOMALATE | Not Active | Not Active
CC[N+](CC)(CC)CCOc1cccc(OCC[N+](CC)(CC)CC)c1OCC[N+](CC)(CC)CC.[I-].[I-].[I-] [GALLAMINE TRIETHIODIDE] | Not Active | Not Active

Target: Matrix metalloproteinase-9 (Homo sapiens, UniProt P14780);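 note: inhibition of isolated MMP-9 enzyme activity toward a synthetic peptide substrate, from the DrugMatrix protease screening panel; in other assays of this panel Not Active means under 50% inhibition at 10 µM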
Format: cell-based
Conditions: not given

Matrix metalloproteinase-9, sequence (P14780 whole entry): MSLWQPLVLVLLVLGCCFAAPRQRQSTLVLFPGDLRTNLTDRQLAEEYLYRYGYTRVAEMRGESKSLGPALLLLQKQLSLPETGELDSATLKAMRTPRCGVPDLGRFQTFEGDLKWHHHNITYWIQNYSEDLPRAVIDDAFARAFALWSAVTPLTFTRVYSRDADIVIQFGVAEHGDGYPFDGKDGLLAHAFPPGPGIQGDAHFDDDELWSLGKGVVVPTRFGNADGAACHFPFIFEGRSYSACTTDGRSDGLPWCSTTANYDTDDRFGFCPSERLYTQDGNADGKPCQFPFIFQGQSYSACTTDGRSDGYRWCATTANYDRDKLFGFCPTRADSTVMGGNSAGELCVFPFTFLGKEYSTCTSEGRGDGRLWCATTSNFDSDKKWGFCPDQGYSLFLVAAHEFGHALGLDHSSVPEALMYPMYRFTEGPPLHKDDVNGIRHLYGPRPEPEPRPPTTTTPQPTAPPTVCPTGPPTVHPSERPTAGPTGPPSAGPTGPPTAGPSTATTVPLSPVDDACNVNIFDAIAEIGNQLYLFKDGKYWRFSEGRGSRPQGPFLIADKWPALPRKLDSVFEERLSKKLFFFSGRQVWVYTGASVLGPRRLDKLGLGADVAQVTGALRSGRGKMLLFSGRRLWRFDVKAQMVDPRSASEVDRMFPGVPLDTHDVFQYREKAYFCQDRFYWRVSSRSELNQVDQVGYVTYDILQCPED

Compound | IC50 | Ki
CC1(C)S[C@@H]2[C@H](NC(=O)[C@H](NC(=O)N3CCNC3=O)c3ccccc3)C(=O)N2[C@H]1C(=O)O [AZLOCILLIN] | Not Active | –
CCOC(=O)OC(C)OC1=C(C(=O)Nc2ccccn2)N(C)S(=O)(=O)c2ccccc21 (stereo not drawn) [AMPIROXICAM] | Not Active | –
GOLD SODIUM THIOMALATE | Not Active | Not Active
CC[N+](CC)(CC)CCOc1cccc(OCC[N+](CC)(CC)CC)c1OCC[N+](CC)(CC)CC.[I-].[I-].[I-] [GALLAMINE TRIETHIODIDE] | Not Active | –

Target: Sigma non-opioid intracellular receptor 1 (Homo sapiens, UniProt Q99720)
Test: DRUGMATRIX: Sigma1 radioligand binding (ligand: [3H] Haloperidol)
Format: cell membranes, Jurkat, Membrane
Conditions: jurkat; Not Active = under 50% inhibition at 10 µM

Sigma non-opioid intracellular receptor 1, sequence (Q99720 whole entry): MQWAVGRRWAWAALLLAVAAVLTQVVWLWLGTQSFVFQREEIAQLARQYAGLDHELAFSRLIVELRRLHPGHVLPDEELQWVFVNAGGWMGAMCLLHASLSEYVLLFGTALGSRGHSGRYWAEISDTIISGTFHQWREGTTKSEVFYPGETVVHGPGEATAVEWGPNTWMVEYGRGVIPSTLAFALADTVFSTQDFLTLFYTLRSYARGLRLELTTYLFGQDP

Compound | IC50 | Ki
CC1(C)S[C@@H]2[C@H](NC(=O)[C@H](NC(=O)N3CCNC3=O)c3ccccc3)C(=O)N2[C@H]1C(=O)O [AZLOCILLIN] | Not Active | –
CCOC(=O)OC(C)OC1=C(C(=O)Nc2ccccn2)N(C)S(=O)(=O)c2ccccc21 (stereo not drawn) [AMPIROXICAM] | Not Active | –
GOLD SODIUM THIOMALATE | Not Active | Not Active
CC[N+](CC)(CC)CCOc1cccc(OCC[N+](CC)(CC)CC)c1OCC[N+](CC)(CC)CC.[I-].[I-].[I-] [GALLAMINE TRIETHIODIDE] | Not Active | –

Target: T3, B2 bradykinin receptor (Homo sapiens, UniProt P30411); note: in other assays of this panel Not Active means under 50% inhibition at 10 µM
T3 sequence (P30411 whole entry): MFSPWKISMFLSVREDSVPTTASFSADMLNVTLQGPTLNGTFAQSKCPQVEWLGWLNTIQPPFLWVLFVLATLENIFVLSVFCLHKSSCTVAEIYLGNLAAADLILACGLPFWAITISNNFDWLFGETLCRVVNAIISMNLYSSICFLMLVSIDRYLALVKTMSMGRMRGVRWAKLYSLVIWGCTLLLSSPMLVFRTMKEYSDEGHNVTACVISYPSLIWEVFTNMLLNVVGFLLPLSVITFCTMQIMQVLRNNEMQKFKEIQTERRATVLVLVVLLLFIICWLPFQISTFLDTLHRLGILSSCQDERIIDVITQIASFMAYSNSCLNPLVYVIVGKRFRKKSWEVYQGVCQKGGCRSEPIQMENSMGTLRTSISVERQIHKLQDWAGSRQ
Format: cell membranes, Membrane
Conditions: chem-1

Compound | IC50 | Ki
CC1(C)S[C@@H]2[C@H](NC(=O)[C@H](NC(=O)N3CCNC3=O)c3ccccc3)C(=O)N2[C@H]1C(=O)O [AZLOCILLIN] | Not Active | –
CCOC(=O)OC(C)OC1=C(C(=O)Nc2ccccn2)N(C)S(=O)(=O)c2ccccc21 (stereo not drawn) [AMPIROXICAM] | Not Active | –
GOLD SODIUM THIOMALATE | Not Active | Not Active
CC[N+](CC)(CC)CCOc1cccc(OCC[N+](CC)(CC)CC)c1OCC[N+](CC)(CC)CC.[I-].[I-].[I-] [GALLAMINE TRIETHIODIDE] | Not Active | –

Target: Vascular endothelial growth factor receptor 1 (Homo sapiens, UniProt P17948); note: in other assays of this panel Not Active means under 50% inhibition at 10 µM
Format: cell-based
Conditions: huvec

Vascular endothelial growth factor receptor 1, sequence (P17948 whole entry): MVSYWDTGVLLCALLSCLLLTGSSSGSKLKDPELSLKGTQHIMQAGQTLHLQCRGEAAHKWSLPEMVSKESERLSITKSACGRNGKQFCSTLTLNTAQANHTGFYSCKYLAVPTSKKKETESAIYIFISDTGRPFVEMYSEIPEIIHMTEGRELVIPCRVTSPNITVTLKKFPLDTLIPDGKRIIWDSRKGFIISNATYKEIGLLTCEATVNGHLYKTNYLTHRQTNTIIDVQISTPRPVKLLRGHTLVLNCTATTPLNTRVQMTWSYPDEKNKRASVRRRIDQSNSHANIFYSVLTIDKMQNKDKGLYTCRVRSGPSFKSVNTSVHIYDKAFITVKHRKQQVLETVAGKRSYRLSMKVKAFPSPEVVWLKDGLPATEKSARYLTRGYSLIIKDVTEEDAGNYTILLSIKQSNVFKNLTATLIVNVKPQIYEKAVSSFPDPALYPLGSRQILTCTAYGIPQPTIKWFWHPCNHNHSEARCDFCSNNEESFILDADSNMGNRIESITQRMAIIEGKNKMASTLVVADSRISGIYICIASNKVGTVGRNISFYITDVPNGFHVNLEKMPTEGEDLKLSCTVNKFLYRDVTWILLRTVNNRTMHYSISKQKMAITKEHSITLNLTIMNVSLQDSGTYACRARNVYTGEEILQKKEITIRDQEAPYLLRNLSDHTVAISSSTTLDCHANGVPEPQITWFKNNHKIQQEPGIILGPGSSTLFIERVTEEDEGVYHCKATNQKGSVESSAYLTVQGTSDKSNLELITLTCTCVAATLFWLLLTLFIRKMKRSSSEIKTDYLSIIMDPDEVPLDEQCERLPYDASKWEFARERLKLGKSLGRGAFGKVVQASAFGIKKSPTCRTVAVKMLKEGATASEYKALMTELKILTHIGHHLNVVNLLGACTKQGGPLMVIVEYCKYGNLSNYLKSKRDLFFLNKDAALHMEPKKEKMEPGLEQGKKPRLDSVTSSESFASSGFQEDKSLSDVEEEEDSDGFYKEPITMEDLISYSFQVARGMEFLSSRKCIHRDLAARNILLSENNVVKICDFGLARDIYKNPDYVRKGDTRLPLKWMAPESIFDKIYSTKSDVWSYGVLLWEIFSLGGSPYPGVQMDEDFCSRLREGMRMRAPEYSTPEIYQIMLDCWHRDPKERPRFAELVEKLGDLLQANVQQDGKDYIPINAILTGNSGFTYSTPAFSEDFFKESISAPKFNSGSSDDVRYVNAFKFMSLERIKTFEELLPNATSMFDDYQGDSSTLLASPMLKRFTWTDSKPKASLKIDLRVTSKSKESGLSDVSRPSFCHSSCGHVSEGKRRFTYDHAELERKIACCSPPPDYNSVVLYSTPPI

Compound | IC50 | Ki
CC1(C)S[C@@H]2[C@H](NC(=O)[C@H](NC(=O)N3CCNC3=O)c3ccccc3)C(=O)N2[C@H]1C(=O)O [AZLOCILLIN] | Not Active | –
CCOC(=O)OC(C)OC1=C(C(=O)Nc2ccccn2)N(C)S(=O)(=O)c2ccccc21 (stereo not drawn) [AMPIROXICAM] | Not Active | –
GOLD SODIUM THIOMALATE | Not Active | Not Active
CC[N+](CC)(CC)CCOc1cccc(OCC[N+](CC)(CC)CC)c1OCC[N+](CC)(CC)CC.[I-].[I-].[I-] [GALLAMINE TRIETHIODIDE] | Not Active | –

Target: T4, Alpha-1A adrenergic receptor (Rattus norvegicus, UniProt P43140)
T4 sequence (P43140 whole entry): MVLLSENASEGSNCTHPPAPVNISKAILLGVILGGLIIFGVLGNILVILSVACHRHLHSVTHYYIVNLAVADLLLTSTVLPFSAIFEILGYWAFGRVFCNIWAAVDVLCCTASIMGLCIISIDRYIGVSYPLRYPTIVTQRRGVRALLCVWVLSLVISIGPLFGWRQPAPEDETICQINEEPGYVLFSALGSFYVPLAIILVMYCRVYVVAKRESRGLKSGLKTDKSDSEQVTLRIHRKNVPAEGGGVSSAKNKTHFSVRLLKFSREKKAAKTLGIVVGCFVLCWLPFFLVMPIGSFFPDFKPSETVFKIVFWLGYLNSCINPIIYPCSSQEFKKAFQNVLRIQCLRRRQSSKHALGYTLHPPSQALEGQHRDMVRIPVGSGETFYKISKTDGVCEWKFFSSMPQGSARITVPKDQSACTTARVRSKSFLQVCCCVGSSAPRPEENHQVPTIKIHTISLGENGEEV
Test: DRUGMATRIX: Alpha-1A adrenergic receptor radioligand binding (ligand: prazosin)
Format: cell membranes, Wistar, Submaxillary gland, Membrane
Conditions: Not Active = under 50% inhibition at 10 µM

Compound | IC50 | Ki
CC1(C)S[C@@H]2[C@H](NC(=O)[C@H](NC(=O)N3CCNC3=O)c3ccccc3)C(=O)N2[C@H]1C(=O)O [AZLOCILLIN] | Not Active | –
CCOC(=O)OC(C)OC1=C(C(=O)Nc2ccccn2)N(C)S(=O)(=O)c2ccccc21 (stereo not drawn) [AMPIROXICAM] | Not Active | –
GOLD SODIUM THIOMALATE | Not Active | Not Active
CC[N+](CC)(CC)CCOc1cccc(OCC[N+](CC)(CC)CC)c1OCC[N+](CC)(CC)CC.[I-].[I-].[I-] [GALLAMINE TRIETHIODIDE] | Not Active | –

Target: Nitric oxide synthase 1 (Rattus norvegicus, UniProt P29476); note: in other assays of this panel Not Active means under 50% inhibition at 10 µM
Format: tissue-based, Cerebellum
Conditions: not given

Nitric oxide synthase 1, sequence (P29476 whole entry): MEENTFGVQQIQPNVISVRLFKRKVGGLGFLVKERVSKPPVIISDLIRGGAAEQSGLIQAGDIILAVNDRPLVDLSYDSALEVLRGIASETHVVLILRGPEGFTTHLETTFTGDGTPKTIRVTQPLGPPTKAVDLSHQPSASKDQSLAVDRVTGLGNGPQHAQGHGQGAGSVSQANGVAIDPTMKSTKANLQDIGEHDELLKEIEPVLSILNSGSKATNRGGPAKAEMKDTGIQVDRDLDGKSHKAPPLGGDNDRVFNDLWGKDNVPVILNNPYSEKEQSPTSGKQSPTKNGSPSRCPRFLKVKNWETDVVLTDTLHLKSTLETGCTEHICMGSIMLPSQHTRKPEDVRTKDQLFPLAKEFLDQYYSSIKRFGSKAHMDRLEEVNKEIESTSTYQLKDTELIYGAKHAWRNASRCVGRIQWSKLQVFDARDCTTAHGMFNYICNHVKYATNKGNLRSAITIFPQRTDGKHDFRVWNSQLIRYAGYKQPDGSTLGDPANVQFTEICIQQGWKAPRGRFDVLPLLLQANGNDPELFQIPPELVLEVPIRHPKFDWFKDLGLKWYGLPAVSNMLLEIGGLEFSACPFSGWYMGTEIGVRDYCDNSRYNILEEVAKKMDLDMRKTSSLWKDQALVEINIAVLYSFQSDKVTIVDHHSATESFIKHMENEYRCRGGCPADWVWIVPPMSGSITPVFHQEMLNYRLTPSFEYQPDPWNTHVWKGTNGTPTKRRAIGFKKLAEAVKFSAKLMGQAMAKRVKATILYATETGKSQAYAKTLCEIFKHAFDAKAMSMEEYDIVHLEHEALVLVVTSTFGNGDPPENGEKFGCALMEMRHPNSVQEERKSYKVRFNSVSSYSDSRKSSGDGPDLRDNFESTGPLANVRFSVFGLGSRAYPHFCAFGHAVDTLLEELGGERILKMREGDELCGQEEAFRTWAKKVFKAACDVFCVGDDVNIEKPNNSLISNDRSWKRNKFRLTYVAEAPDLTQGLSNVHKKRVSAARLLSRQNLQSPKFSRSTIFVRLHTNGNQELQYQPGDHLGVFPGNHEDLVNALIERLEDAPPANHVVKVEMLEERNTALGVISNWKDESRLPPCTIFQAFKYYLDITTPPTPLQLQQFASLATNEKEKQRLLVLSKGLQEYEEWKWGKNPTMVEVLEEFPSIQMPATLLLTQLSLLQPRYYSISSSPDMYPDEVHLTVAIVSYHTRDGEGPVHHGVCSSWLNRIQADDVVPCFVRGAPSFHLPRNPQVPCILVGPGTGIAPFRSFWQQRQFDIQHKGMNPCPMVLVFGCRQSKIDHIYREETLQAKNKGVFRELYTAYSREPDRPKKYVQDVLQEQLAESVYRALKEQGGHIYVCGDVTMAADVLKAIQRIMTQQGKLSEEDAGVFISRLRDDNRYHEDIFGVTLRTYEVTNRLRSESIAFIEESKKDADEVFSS

Compound | IC50 | Ki
CC1(C)S[C@@H]2[C@H](NC(=O)[C@H](NC(=O)N3CCNC3=O)c3ccccc3)C(=O)N2[C@H]1C(=O)O [AZLOCILLIN] | Not Active | –
CCOC(=O)OC(C)OC1=C(C(=O)Nc2ccccn2)N(C)S(=O)(=O)c2ccccc21 (stereo not drawn) [AMPIROXICAM] | Not Active | –
GOLD SODIUM THIOMALATE | Not Active | Not Active
CC[N+](CC)(CC)CCOc1cccc(OCC[N+](CC)(CC)CC)c1OCC[N+](CC)(CC)CC.[I-].[I-].[I-] [GALLAMINE TRIETHIODIDE] | Not Active | –

Target: Mitogen-activated protein kinase 14 (Homo sapiens, UniProt Q16539)
Parameters: species or system Escherichia coli
Conditions: not given

Compound | IC50 | Ki
CC1(C)S[C@@H]2[C@H](NC(=O)[C@H](NC(=O)N3CCNC3=O)c3ccccc3)C(=O)N2[C@H]1C(=O)O [AZLOCILLIN] | Not Active | –
CCOC(=O)OC(C)OC1=C(C(=O)Nc2ccccn2)N(C)S(=O)(=O)c2ccccc21 (stereo not drawn) [AMPIROXICAM] | Not Active | –
GOLD SODIUM THIOMALATE | Not Active | Not Active
CC[N+](CC)(CC)CCOc1cccc(OCC[N+](CC)(CC)CC)c1OCC[N+](CC)(CC)CC.[I-].[I-].[I-] [GALLAMINE TRIETHIODIDE] | Not Active | –
